System: liver slices
Assay: Effect of acetaminophen on liver oxygen consumption rate (OCR) in microperifusion prototype
Assay type: cell-based, rat
Details: two 1 mg liver slices per channel, after about three hours baseline, triplicate channels

CC(=O)Nc1ccc(O)cc1 [acetaminophen]
OCR lowered (6 mM acetaminophen): 40% | OCR lowered (15 mM acetaminophen): 60%

— patent US11926812B2, “Pressure-driven, adjustable throughput fluidics for tissue and cell perifusions” (EnTox Sciences, Inc., priority 2017, dated 2024)
